Measurements from patent publication US11634452B2, “Compounds for treating neurodegenerative disorders” (ETHNODYNE, priority 2017, dated 2023).
“Also recorded” adds a separate entry of the source.

Legend:
[1] = system: primary rat dopaminergic neurons (TH positive neurons) injured with 6-OHDA; assay: Neuroprotective effect following exposure to 6-OHDA, with or without pathway inhibitors; assay type: cell-based
Procedure: This study investigated the mode of action of CR777 on rat primary mesencephalic cultures following exposure to 6-OHDA. The effect of CR777 on level of GDNF and BDNF mRNA was investigated after 24 h 6-OHDA incubation and CR777. The main pathways of survival, regulation of the apoptosis and neuronal growth were investigated in presence of CR777 and inhibitors of these different pathways. The following pathways were investigated using antagonists of different proteins of interest: • RAS (small GTPase)/RAF (proto-oncogene Serine/threonine kinase); • Peroxisome proliferator-activated receptor gamma (PPAR-γ) (nuclear receptor) • The Pi3K/AKT/mTor (cell signaling pathway that plays a key role in cellular homeostasis through its role in regulation of apoptosis, cell growth, cell cycle). • NO (nitric oxide) pathway
Rat dopaminergic neurons were cultured as described in Example 4.
On day 6 of culture, the medium was removed and fresh medium was added, without or with 6-OHDA (Sigma, Batch: 083M4624V) at 20 μM diluted in control medium and let for 48 h. In parallel, all inhibitors were solved in culture medium and were added 2 h before the 6-OHDA application (namely 1 h before test compounds application).
CR777 was solved in DMSO at 10 mM, diluted in culture medium and then pre-incubated with mesencephalic neurons 1 hour before the 6-OHDA application (48 h). 6 wells per condition were assessed.
For survival and α-syn aggregation, compound was tested on 1 culture in a 96 well-plate (6 wells per condition), was pre-incubated 1 hour before 6-OHDA and let for 48 hours.
The following conditions were assessed: • Control (culture medium) • +6-OHDA (20 μM, 48 h) • +6-OHDA (20 μM, 48 h)+CR777 1 μM • +6-OHDA (20 μM, 48 h)+CR777 100 nM • +6-OHDA (20 μM, 48 h)+CR777 10 nM • +6-OHDA (20 μM, 48 h)+CR777 1 nM
For pathway investigation, the compound was tested on one primary dopaminergic culture in 96 well plates (6 wells per conditions).
Inhibitors were pre-incubated for 2 hours before 6-OHDA application and CR777 was pre-incubated 1 hour before 6-OHDA application.
The antagonists/inhibitors used in the experiments are the following: • FTS: farnesylthiosalicylic acid selectively disrupts the association of chronically active Ras proteins with the plasma membrane. • BEZ-235: dual PI3K/mTOR inhibitor. • T0070907: selective PPAR-γ antagonist • L-NAME (Nitro-L-arginine methyl ester): precursor to NOS inhibitor, L-NNA—requires bioactivation to become a fully functional inhibitor. • ABT-199: selective inhibitor of Bcl-2.
48 hours after intoxication, the cell culture supernatant was taken off and the dopaminergic neurons were fixed by a solution of 4% paraformaldehyde in PBS, pH=7.3 for 20 min at room temperature.
After permeabilization with 0.1% of saponin, cells were incubated for 2 hours with:
monoclonal Anti-Tyrosine Hydroxylase (TH) antibody produced in mouse at dilution of 1/10000 in PBS containing 1% FCS, 0.1% saponin,
polyclonal anti-α-syn antibody produced in rabbit at dilution of 1/200 for 2 h at room temperature.
For each condition, 20 pictures/well (representative of ˜the all well area) were automatically taken using ImageXpress (Molecular Devices) with 10× magnification. All images were taken with the same conditions. Analysis were automatically performed by using Custom Module Editor (Molecular Devices).
The following endpoint was investigated for each culture well: • The total dopaminergic neuron survival (TH staining), • The total area of α-syn on TH positive neuron (overlapping α-syn/TH)
After permeabilization with 0.1% of saponin, cells were incubated for 2 hours with monoclonal Anti-Tyrosine Hydroxylase (TH) antibody produced in mouse at dilution of 1/10000 in PBS containing 1% FCS, 0.1% saponin, for 2 h at room temperature.
The total dopaminergic neuron survival (TH staining) was investigated for each culture well.

[2] = system: primary rat motor neurons injured with glutamate; assay: Primary motor neuron culture survival after glutamate exposure (in vitro ALS model); assay type: cell-based; conditions: CR777 between 1 nM and 10 nM, added 1 h before glutamate (5 μM, 20 min, then 48 h)
Procedure: The aim of this study was to study the effect of CR777 on primary motor neuron culture from rat spinal cord (SC) injured by glutamate exposure (a well validated in vitro ALS model and model of motor neuron diseases).
Rat SC motor neurons were cultured as described by Martinou et al., Neuron. 1992 April; 8(4):737-44 and Wang et al., Hum Mol Genet. 2013 Dec. 1; 22(23):4706-19. Briefly, pregnant female rats (Wistar, Janvier labs) of 14 days gestation were killed by cervical dislocation. […] Cells were then centrifuged at 180 g for 10 min at +4° C. on a layer of BSA (3.5%) in L15 medium. […] The medium was changed every day.
The following conditions were assessed: • Control • + glutamate (5 μM 20 mn then 48 h) • + glutamate (5 μM 20 mn then 48 h)+CR777 1 pmol/L • + glutamate (5 μM 20 mn then 48 h)+CR777 10 pmol/L • + glutamate (5 μM 20 mn then 48 h)+CR777 100 pmol/L • + glutamate (5 μM 20 mn then 48 h)+CR777 1 nmol/L • + glutamate (5 μM 20 mn then 48 h)+CR777 10 nmol/L • + glutamate (5 μM 20 mn then 48 h)+CR777 100 nmol/L • + glutamate (5 μM 20 mn then 48 h)+CR777 1 μmol/L • + glutamate (5 μM 20 mn then 48 h)+CR777 10 μmol/L […]
For each condition, 6 wells were assessed, 30 pictures per well were taken using ImageXpress (Molecular Devices) with 20× magnification, to assess motor neuron survival (MAP-2). […]

CC1=C(CO)C(=O)O[C@@H]([C@@H](C)[C@H]2CCC3C4C[C@H](SC[C@H](NC(=O)CC[C@@H](N)C(=O)O)C(=O)NCC(=O)O)[C@]5(O)[C@@H](O)C=CC(=O)[C@]5(C)C4CC[C@@]32C)C1 (stereo partly drawn) [CR777]
neuroprotective effect (TH neuron survival) in presence of Bcl2 pathway inhibitor ([1]; CR777 10 nM + ABT 199 (5 μM), 6-OHDA 20 μM): did not induce any changes | neuroprotective effect (TH neuron survival) in presence of PI3K/AKT/mTOR pathway inhibitor ([1]; CR777 10 nM + BEZ235 (40 nM), 6-OHDA 20 μM): fully abolished | neuroprotective effect (TH neuron survival) in presence of Ras/Raf pathway inhibitor ([1]; CR777 10 nM + FTS (4 μM), 6-OHDA 20 μM): did not induce any changes | neuroprotective effect (TH neuron survival) in presence of nNOS pathway inhibitor ([1]; CR777 10 nM + L-NAME (100 μM), 6-OHDA 20 μM): did not induce any changes | neuroprotective effect (TH neuron survival) in presence of PPARγ pathway inhibitor ([1]; CR777 10 nM + T0070907 (1 μM), 6-OHDA 20 μM): no effect was observed | TH positive neuron survival ([1]; CR777 10 nM added 1 h before 6-OHDA (20 μM, 48 h), bell shape curve): significantly protected neurons from death; also recorded: significant protective effect; also recorded: able to protect TH positive neurons | α-syn aggregation in TH positive neurons ([1]; CR777 10 and 100 nM, 6-OHDA 20 μM, 48 h): able to reduce the aggregation; also recorded: partially protected | dopaminergic neurite network ([1]; all concentrations tested (1 nM to 1 μM), 6-OHDA 20 μM, 48 h): significant protective effect | motor neuron survival [2]: moderate and significant protective effect
